Data reported in patent publication US4665074A, “6-(polyfluoroalkoxyphenyl) pyridazinones, their compositions, synthesis and use” (Byk Gulden Lomberg Chemische Fabrik GmbH, priority 1984, dated 1987).

Tests used:
[1] = test system: isolated, spontaneously contracted chain of tracheal rings of the guinea pig; assay: Bronchospasmolytic action in vitro on chain of tracheal rings (relaxation of spontaneous tonic contraction); type: cell-based; settings: for -lg(EC50) trachea / EC50: EC50 in mol/l, 50% of maximum relaxation achieved by (-)isoprenaline 10^-6 mol/l, 37°; for (EC50)theophylline / (EC50)substance: activity on trachea relative to theophylline; for (EC40pot.) left atrium / (EC50)trachea: organ-selectivity ratio, rat left atrium vs guinea pig trachea; for EC50: Cavia porcellus, read-out: -lg(EC50) trachea (converted)
Experimental: To test the bronchospasmolytic action of the compounds in vitro on a chain of tracheal rings of the guinea pig, such tracheal rings are subjected to the following procedure:
Four parallel chains of tracheal rings (each consisting of 6 individual rings) of guinea pigs (.male. and .female., 430-600 g) in an organ bath [5 ml, Krebs-Henseleit solution with added phentolamine (10^-5 mol/l), 37°, initial tension of the organs 2 g, gassing with carbogen] develop a stable, spontaneous tonic contraction after about 20 to 30 minutes. […] Over a period of from 20 to 30 minutes, a complete dose/action curve of the test substance is thus obtained. The particular relaxation is expressed as a percentage fraction of the maximum relaxation achieved by administration of (-)isoprenaline (10^-6 mol/l).
(§1) The measure used for the organ-selective activity is the ratio between (EC40pot.) left atrium and (EC50)trachea. As a measure of the activity, the ratios between (EC50)trachea values and (EC40pot.)left atrium values of theophylline and the tested compound are given.

[2] = test system: electrically-stimulated left atrium of the rat; assay: Positive inotropic action in vitro on electrically-stimulated left atrium; type: cell-based; settings: for -lg(EC40pot.) left atrium / EC40: EC40pot. in mol/l, 40% increase in contraction force vs initial value, 31°; for (EC40pot.)theophylline /(EC40pot.)substance: activity on left atrium relative to theophylline; for EC40: Rattus norvegicus, read-out: -lg(EC40pot.) left atrium (converted)
Experimental: Testing the positive inotropic action of the compounds in vitro on the electrically-stimulated left atrium of the rat is effected as follows:
Isometric contractions (HSE force sensor K-30; Watanabe recorder, Linear Corder Mark 5) of isolated left atria of rats (.male., 250-300 g) in an organ bath (10 ml, Tyrode nutrient solution, 31°, gassing with carbogen, initial tension of the organs 0.25 g) with electric stimulation (HSE stimulator, 7 V, 3 ms, 2 Hz) are recorded. After an equilibration period of 30 minutes, a dose-dependent increase in the contraction force is brought about by administration of the test substance in concentrations which increase semilogarithmically and cumulatively (for example 1×10^-6 +2×10^-6 +7×10^-6 +2×10^-5etc. mol/l), a constant inotropic response being waited for after each individual dose of the test substance before the next higher concentration is administered. The particular increase in the contraction force is expressed as a % of the initial value before administration of the substance. The concentration of the test substance which potentiates the contraction force of the atrium by 40% compared with the initial value (EC40pot.mol/l), expressed by the negative logarithm of (EC40pot.mol/l): -1 g(EC40pot.), serves as a measure of the cardiotonic activity.
as §1

[3] = test system: acetylcholine-induced bronchospasm; assay: Protective action against acetylcholine-induced bronchospasm in conscious guinea pigs; type: in vivo, guinea pig; settings: 100 μmol/kg p.o.; test 30 min after application; acetylcholine mist 0.06%
Experimental: Guinea pigs (250-350 g) in a closed Plexiglas cylinder (volume: 5 l) are exposed to a mist of acetylcholine (0.06% in 0.9% sodium chloride solution; Heyer Use 77 ultrasonic atomizer) twice at an interval of 20 minutes. The time from the start of atomization until there is onset of a marked struggle to breathe (in certain circumstances, a hypoxic convulsion in the lateral position) is measured and designated the latency perid. […] The test substance is administered orally by gavage (standard dose 100 μmol/kg, volume 1 ml of 4% strength methocel suspension in 0.9% strength sodium chloride solution/kg). After 30 minutes, the animals are again exposed to the mist of acetylcholine, and the latency periods are measured. A prolongation of the latency period to […] is regarded as a protective action.

Molecule	-lg(EC50) trachea [1]	(EC50)theophylline / (EC50)substance [1]	(EC40pot.) left atrium / (EC50)trachea [1]	-lg(EC40pot.) left atrium [2]	(EC40pot.)theophylline /(EC40pot.)substance [2]	Tripling of the latency period in N of 10 animals [3]	-lg(EC50) trachea ([1]; listed as 2)	(EC50)theophylline / (EC50)substance ([1]; listed as 2)	(EC40pot.) left atrium / (EC50)trachea ([1]; listed as 2)	-lg(EC40pot.) left atrium ([2]; listed as 2)	(EC40pot.)theophylline /(EC40pot.)substance ([2]; listed as 2)	EC50 [1] [µM]	EC40 [2] [µM]
6-(4-difluoromethoxy-3-methoxyphenyl)-3[2H]pyridazinone [Serial No. 5]	5.80	85	1.1	5.76	240	7 of 10 animals							
O=c1ccc(-c2ccc(OC(F)(F)F)cc2)n[nH]1 [Serial No. 1, 6-(4-trifluoromethoxyphenyl)-3[2H]pyridazinone]	4.60	5.4	4.0	4.0	4.2		5.11	17.4	2.8	4.66	19		
O=c1ccc(-c2cccc(OC(F)(F)C(F)F)c2)n[nH]1 [Serial No. 2, 6-[3-(1,1,2,2-tetrafluoroethoxy)phenyl]-3[2H]pyridazinone]						8 of 10 animals							
O=c1ccc(-c2ccc(OC(F)(F)C(F)F)cc2)n[nH]1 [Serial No. 3, 6-[4-(1,1,2,2-tetrafluoroethoxy)phenyl]-3[2H]pyridazinone]		13.2	6.8		6.8							9.12	61.7
Cn1c(=O)c2[nH]cnc2n(C)c1=O [Theophylline, theophylline, reference compound]			3.1			3 of 10 animals						135	417
COc1cc(-c2ccc(=O)[nH]n2)ccc1OC(F)F [compound 5]		110	0.7		469	9 of 10 animals						1.23	0.871
O=c1ccc(-c2ccc(OC(F)F)cc2)n[nH]1 [compound 6]		11.2	2.7		12.9	8 of 10 animals						12	32.4
O=c1ccc(-c2cccc(OC(F)F)c2)n[nH]1 [compound 7]		9.3	> 6.9			9 of 10 animals						14.5	> 100
